pIC50: −log10 of the molar value.
Biological target: T1, AII receptors (Cavia porcellus, UniProt Q9WV26)
T1 construct: from tissue; host or cells: guinea pig adrenal gland, cell surface membrane fraction
T1 sequence (Q9WV26 1-359): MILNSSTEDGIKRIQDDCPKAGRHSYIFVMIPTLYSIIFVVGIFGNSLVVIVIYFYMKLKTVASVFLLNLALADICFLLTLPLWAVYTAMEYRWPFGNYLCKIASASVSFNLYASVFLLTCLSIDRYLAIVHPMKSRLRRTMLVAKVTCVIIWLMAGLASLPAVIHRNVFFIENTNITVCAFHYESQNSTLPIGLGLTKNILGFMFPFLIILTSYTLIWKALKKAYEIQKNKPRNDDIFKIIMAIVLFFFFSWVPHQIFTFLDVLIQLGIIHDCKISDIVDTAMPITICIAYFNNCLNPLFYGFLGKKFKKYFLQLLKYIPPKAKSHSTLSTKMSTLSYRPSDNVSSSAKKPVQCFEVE
Test: Test A: displacement of radiolabelled AII binding from guinea pig adrenal gland membrane fraction
Details: guinea pig adrenal gland membranes; read-out: IC50 (concentration for 50% displacement of radiolabelled AII binding)
Method: This in vitro procedure involves the incubation of the test compound initially at a concentration of 100 micromolar (or less) in a buffered mixture containing fixed concentrations of radiolabelled AII and a cell surface membrane fraction prepared from a suitable angiotensin target tissue. In this test, the source of cell surface membranes is the guinea pig adrenal gland which is well known to respond to AII. Interaction of the radiolabelled AII with its receptors (assessed as radiolabel bound to the particulate membrane fraction following removal of unbound radiolabel by a rapid filtration procedure such as is standard in such studies) is antagonized by compounds which also bind to the membrane receptor sites and the degree of antagonism (observed in the test as displacement of membrane-bound radioactivity) is determined readily by comparing the receptor-bound radioactivity in the presence of the test compound at the specified test concentration with a control value determined in the absence of the test compound. Using this procedure compounds showing at least 50% displacement of radiolabelled AII binding at a concentration of 10^4 M are retested at lower concentrations to determine their potency. […]

CCc1cc2c(ccc(=O)n2Cc2ccc(OC(C(=O)O)c3ccccc3)cc2)c(CC)n1 (stereo not shown) [Example 2]
pIC50: 6.57
